# Patent publication US11220672B2, “Human pluripotent stem cell-based system for generating endothelial cells” (Wisconsin Alumni Research Foundation, priority 2014, dated 2022)
# Legend:
# endothelial cells (ECs) = type: cell-based; conditions: ECs on TCP (2D culture)
# Text: (§1) (D) Top 10 (TPM>100, top 10 fold change) vasculature (TPM>100, Top 10 fold change) (AmiGO, GO:0001944) and cell cycle genes (AmiGO, GO:0007049) from RNA-seq. Full gene list of vasculature and cell cycle was generated by Amigo. […] Data was normalized to DMSO control (not shown). […] Data was normalized to NT control. ERK2i, siRNA of ERK2. NT, non-targeting.
# [1] = system: vasculature and cell cycle genes; test: RT-qPCR of vasculature and cell cycle gene expression in ECs on TCP; type: cell-based, human; conditions: normalized to control
# Text: as §1
# (§2) We investigated a potential role for ERK signaling on cell cycle gene expression for ECs cultured on TCP surfaces since ERK regulates EC functions that include proliferation, blood vessel morphogenesis, and mechanotransduction^34,35,43-46. […] We further investigated the role for ERK activity in regulating the shift to a proliferative phenotype by comparing the top 10 enriched cycle genes from 2D culture and vascular development genes from 3D culture (Day 3) for ECs on TCP after pERK inhibition (FIGS. 3b-d).
# ERK = test: Western blot of ERK activity (pERK) in endothelial cells in 2D culture; type: cell-based, human; conditions: ECs on TCP (2D culture)
# Text: as §1, §2
smiles,measurement,setting,value
N#CC(=C(/N)Sc1ccccc1N)/C(C#N)=C(\N)Sc1ccccc1N [U0126],EC proliferation,endothelial cells (ECs),decreased EC proliferation
same,"cell cycle gene expression (top 10 genes, RT-qPCR)",[1],10 of 10 genes downregulated
same,"vasculature (vascular development) gene expression (top 10 genes, RT-qPCR)",[1],8 of 10 genes upregulated
same,ERK activity (Western blot),ERK,decreased ERK activity
